These results are taken from patent US9855265B2, “Methods for treating cancer with TrkA receptor tyrosine kinase antagonists” (VM Oncology LLC, priority 2014, dated 2018).

In one experiment the target is T1, FLT3 (CD) (Homo sapiens, UniProt P36888).
T1 construct: other kinases of recombinant human cytoplasmic domain
Put plainly: radiometric kinase assay, other kinases: FLT3 (CD). It counts as biochemical. The following applies: duplicate. The method, then: (§1) Compound inhibition in a radiometric based mixed micelle assay: In a final reaction volume of 25 μL, TrkA (h) ([…]) is incubated with the kinase reaction buffer (20 mM HEPES (pH 7.5), 10 mM MgCl2, 1 mM EGTA, 0.02% Brij 35, 0.02 mg/ml BSA, 0.1 mM Na3VO4, 2 mM DTT, 1% DMSO), 0.2 mg/ml substrate PolyEY(4:1) and […], and [^33P-ATP](specific activity approx. 500 cpm/pmol, concentration as required). The reaction is initiated by the addition of the MgATP mix. After incubation for at least 40 minutes at room temperature, the reaction is stopped by the addition of 5 μL of a 3% phosphoric acid solution. 10 μL of the reaction is then spotted onto a P30 filtermat and washed three times for 5 minutes in 75 mM phosphoric acid and once in methanol prior to drying and scintillation counting. TrkA: Recombinant Human Cytoplasmic Domain (amino acids 441-796), Histidine-tagged, expressed in insect cells. Activated in vitro via auto-phosphorylation. Mw=42.8 kDa. Substrates for kinases: poly(EY) for TRKA; poly(EY)(4:1) with 2 mM MnCl2, average Mw=16 kDa Standard conditions (unless otherwise specified): 30 nM TRKA, 0.2 mg/ml poly(EY)+2 mM MnCl2, and 10 μM ([γ-^33P]) ATP. Using the similar assay condition with other kinases of recombinant human cytoplasmic domain, the activities of other kinases could be also measured.

The target of the next experiment is PKCalpha (Homo sapiens, UniProt P17252). The experiment can be described thus: radiometric kinase assay, other kinases: PKCalpha. The class given is biochemical. As to conditions: duplicate. The method, then:
as §1

In a further experiment the target is PKCeta (Homo sapiens, UniProt P24723). Put plainly: radiometric kinase assay, other kinases: PKCeta. The class given is biochemical. The following applies: duplicate. The method, then: as §1
The next experiment addresses LYN (Homo sapiens, UniProt P07948). The experiment can be described thus: radiometric kinase assay, other kinases: LYN. As to conditions: duplicate. The class given is biochemical. The method, then:
as §1

The next experiment deals with MLK1/MAP3K9 (Homo sapiens, UniProt P80192). Put plainly: radiometric kinase assay, other kinases: MLK1/MAP3K9. The class given is biochemical. As to conditions: duplicate. The procedure: as §1
In experiment [1] the test system is HepG2 human liver cancer cells. The experiment can be described thus: Cell Viability and Proliferation Assay, HepG2. The class given is cell-based. The following applies: after 24 incubation. The method, then:
(§2) Cell Viability and Proliferation Assays. To assess the chemosensitivity of tumor cells, cell viability is measured by CellTiter-Glo® Luminescent Cell Viability Assay (Promega; Wis., USA) per the manufacturer's instruction. Briefly, 5×10^3 to 7×10^5 cells/ml are cultured in sterile 96-well plates in the presence of increasing concentrations of the drugs (test article, 0 to 100 μM), or vehicle in RPMI medium. The plates are then incubated for 24 to 96 h, and then 100 μl of CellTiter-Glo reagent is added to lyse the cells. After a 10-min incubation at room temperature, the luminescence is recorded in a luminometer with an integration time of 1 s per well. The luminescence signals for the drug-treated cells are normalized by the luminescence signal obtained from vehicle-treated cells. As an alternative method to quantitate cell viability, the trypan blue exclusion dye method was used. Vehicle- or drug-treated cells were assayed by adding trypan blue solution (0.4% in phosphate-buffered saline [PBS]) to the culture medium. After 3 min, the number of dead cells that retained the dye is compared to the total number of cells to calculate cell viability. GraphPad Prism 5 software is used to calculate IC50 and plot effect-dose curve of drugs. Multiplate reader: EnVision 2104 (PerkinElmer). % of control variability=100*[(X(drug_treated)−L(baseline))/(H(vehicle_control)−L(baseline))]. […]

For the next experiment, the target named is T2, FMS (Homo sapiens, UniProt P07333).
T2 construct: other kinases of recombinant human cytoplasmic domain
Put plainly: radiometric kinase assay, other kinases: FMS. It counts as biochemical. The following applies: duplicate. The method, then:
as §1

The subject of experiment [2] is Capan-1 human pancreatic cancer cells. Put plainly: Cell Viability and Proliferation Assay, Capan-1. It counts as cell-based. As to conditions: after 24 incubation. The method, then: as §2
The target of the next experiment is T3, FGFR1 (Homo sapiens, UniProt P11362).
T3 construct: other kinases of recombinant human cytoplasmic domain
T3 sequence (P11362 398-822 limits assumed): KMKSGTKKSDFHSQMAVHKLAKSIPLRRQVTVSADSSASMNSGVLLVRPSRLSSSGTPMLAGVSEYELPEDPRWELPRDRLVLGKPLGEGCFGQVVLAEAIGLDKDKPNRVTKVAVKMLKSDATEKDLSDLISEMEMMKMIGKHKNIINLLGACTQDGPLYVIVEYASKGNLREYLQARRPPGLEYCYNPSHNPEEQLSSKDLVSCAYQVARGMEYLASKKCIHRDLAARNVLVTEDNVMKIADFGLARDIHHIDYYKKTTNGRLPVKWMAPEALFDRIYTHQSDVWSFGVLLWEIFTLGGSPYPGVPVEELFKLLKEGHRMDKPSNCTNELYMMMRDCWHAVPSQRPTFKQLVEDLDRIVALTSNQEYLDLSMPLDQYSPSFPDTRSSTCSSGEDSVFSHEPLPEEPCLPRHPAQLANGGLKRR
Put plainly: radiometric kinase assay, other kinases: FGFR1. It counts as biochemical. As to conditions: duplicate. The procedure: as §1

Experiment [3] concerns BxPC-3 human pancreatic cancer cells. The experiment can be described thus: Cell Viability and Proliferation Assay, BxPC-3. The following applies: after 24 incubation. The class given is cell-based. The procedure:
as §2

For experiment [4], the system named is Panc-1 human pancreatic cancer cells. Put plainly: Cell Viability and Proliferation Assay, Panc-1. The class given is cell-based. The following applies: after 24 incubation. The method, then: as §2
In the next experiment the target is PKCdelta (Homo sapiens, UniProt Q05655). The experiment can be described thus: radiometric kinase assay, other kinases: PKCdelta. The class given is biochemical. The following applies: duplicate. The procedure:
as §1

In the next experiment the target is PKG1b (Homo sapiens, UniProt Q13976). The experiment can be described thus: radiometric kinase assay, other kinases: PKG1b. It counts as biochemical. As to conditions: duplicate. The procedure:
as §1

The target in another experiment is PKCtheta (Homo sapiens, UniProt Q04759). Put plainly: radiometric kinase assay, other kinases: PKCtheta. The following applies: duplicate. It counts as biochemical. The procedure: as §1
A further experiment has as its target PKCbetaII (Homo sapiens, UniProt P05771). Put plainly: radiometric kinase assay, other kinases: PKCbetaII. The class given is biochemical. As to conditions: duplicate. The procedure: as §1
Another experiment deals with AKT1 (Homo sapiens, UniProt P31749). The experiment can be described thus: radiometric kinase assay, other kinases: AKT1. The class given is biochemical. The following applies: duplicate. The procedure:
as §1

The target in a further experiment is TrkB (Homo sapiens, UniProt Q16620). The experiment can be described thus: live whole cell based functional assay, BDNF stimulated TrkB activation. More on the design: expressed in transfected cells. As to conditions: triplicate.
TrkB, sequence (Q16620 32-822): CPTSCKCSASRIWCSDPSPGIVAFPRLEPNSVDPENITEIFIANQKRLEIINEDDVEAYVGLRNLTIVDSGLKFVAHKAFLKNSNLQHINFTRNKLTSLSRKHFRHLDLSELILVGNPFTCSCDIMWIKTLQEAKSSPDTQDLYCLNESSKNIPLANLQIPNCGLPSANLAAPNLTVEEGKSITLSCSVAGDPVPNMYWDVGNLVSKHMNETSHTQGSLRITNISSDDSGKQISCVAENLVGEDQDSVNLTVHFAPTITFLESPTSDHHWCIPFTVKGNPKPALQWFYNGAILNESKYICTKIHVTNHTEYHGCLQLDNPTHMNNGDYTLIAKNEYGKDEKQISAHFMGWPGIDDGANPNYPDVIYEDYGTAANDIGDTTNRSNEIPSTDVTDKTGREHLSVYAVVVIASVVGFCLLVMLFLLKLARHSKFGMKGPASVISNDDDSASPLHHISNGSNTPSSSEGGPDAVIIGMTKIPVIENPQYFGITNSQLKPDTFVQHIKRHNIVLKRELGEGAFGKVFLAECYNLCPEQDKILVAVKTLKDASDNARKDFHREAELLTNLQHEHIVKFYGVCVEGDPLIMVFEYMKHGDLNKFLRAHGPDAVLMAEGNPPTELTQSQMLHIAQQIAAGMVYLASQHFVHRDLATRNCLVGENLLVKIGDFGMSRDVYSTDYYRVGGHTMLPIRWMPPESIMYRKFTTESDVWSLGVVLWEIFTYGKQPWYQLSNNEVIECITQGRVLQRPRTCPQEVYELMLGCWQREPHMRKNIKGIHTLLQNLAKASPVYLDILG
Another experiment has as its target T4, MUSK (Homo sapiens, UniProt O15146).
T4 construct: other kinases of recombinant human cytoplasmic domain
Put plainly: radiometric kinase assay, other kinases: MUSK. As to conditions: duplicate. It counts as biochemical. The procedure: as §1

Another experiment deals with PKCzeta (Homo sapiens, UniProt Q05513). The experiment can be described thus: radiometric kinase assay, other kinases: PKCzeta. The class given is biochemical. As to conditions: duplicate. The method, then:
as §1

The test system of experiment [5] is MIA PaCa-2 human pancreatic cancer cells. Put plainly: Cell Viability and Proliferation Assay, MIA PaCa-2. As to conditions: after 24 incubation. It counts as cell-based. The procedure:
as §2

For experiment [6], the system named is AsPC-1 human pancreatic cancer cells. The experiment can be described thus: Cell Viability and Proliferation Assay, AsPC-1. As to conditions: ASPC1, after 24 incubation. It counts as cell-based. The method, then: as §2
The next experiment concerns the target PKCepsilon (Homo sapiens, UniProt Q02156). Put plainly: radiometric kinase assay, other kinases: PKCepsilon. The class given is biochemical. As to conditions: duplicate. The method, then: as §1

PKCbetaII, sequence (P05771 1-673 isoform P05771-2): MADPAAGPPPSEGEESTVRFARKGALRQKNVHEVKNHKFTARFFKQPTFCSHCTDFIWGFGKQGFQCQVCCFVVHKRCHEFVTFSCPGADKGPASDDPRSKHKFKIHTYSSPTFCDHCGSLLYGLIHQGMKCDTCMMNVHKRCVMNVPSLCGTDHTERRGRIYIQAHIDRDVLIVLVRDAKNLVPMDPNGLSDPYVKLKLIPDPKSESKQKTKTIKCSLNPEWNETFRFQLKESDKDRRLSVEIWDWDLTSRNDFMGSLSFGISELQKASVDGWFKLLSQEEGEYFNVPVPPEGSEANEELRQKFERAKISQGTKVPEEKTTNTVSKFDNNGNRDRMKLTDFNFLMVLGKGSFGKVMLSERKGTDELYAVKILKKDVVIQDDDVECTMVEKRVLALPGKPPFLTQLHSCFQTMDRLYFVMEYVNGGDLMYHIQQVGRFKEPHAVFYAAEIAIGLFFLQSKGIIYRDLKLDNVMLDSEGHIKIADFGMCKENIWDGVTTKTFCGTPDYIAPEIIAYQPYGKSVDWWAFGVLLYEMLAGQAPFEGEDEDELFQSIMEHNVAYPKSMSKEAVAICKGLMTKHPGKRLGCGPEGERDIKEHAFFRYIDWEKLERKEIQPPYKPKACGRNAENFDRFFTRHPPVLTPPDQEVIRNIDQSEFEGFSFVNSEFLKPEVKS
PKCepsilon, sequence (Q02156 whole entry): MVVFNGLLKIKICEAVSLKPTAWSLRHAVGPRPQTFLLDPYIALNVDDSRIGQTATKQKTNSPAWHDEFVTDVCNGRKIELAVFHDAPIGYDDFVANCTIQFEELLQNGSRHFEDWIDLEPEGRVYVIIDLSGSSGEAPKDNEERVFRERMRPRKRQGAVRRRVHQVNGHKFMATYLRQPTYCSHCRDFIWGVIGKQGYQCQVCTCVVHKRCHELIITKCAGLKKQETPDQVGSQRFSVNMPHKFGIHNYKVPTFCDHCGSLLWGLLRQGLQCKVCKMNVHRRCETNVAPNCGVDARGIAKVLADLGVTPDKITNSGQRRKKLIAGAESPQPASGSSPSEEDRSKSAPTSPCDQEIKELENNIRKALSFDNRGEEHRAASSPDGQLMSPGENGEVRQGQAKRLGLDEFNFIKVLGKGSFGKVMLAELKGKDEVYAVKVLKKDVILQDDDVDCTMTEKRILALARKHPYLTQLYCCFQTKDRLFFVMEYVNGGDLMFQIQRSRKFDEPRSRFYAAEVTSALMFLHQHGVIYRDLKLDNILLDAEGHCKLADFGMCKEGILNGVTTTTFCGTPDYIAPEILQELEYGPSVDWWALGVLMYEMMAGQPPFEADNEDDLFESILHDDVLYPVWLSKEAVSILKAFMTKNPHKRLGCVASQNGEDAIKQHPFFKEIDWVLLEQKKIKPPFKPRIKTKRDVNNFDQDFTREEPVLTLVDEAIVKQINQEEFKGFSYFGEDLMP
AKT1, sequence (P31749 whole entry): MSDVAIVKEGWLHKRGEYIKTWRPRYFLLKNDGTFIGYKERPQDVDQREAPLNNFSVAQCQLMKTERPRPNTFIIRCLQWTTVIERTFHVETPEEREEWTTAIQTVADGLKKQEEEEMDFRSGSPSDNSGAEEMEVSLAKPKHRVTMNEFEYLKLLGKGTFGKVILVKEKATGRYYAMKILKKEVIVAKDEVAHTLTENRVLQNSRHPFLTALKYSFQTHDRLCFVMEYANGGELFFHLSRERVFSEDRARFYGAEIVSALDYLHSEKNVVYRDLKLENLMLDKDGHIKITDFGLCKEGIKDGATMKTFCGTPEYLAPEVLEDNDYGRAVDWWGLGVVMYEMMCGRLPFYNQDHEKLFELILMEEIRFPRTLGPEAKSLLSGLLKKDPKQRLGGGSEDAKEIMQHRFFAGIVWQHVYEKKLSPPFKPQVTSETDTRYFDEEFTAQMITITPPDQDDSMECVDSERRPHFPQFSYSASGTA
PKG1b, sequence (Q13976 1-686 isoform Q13976-2): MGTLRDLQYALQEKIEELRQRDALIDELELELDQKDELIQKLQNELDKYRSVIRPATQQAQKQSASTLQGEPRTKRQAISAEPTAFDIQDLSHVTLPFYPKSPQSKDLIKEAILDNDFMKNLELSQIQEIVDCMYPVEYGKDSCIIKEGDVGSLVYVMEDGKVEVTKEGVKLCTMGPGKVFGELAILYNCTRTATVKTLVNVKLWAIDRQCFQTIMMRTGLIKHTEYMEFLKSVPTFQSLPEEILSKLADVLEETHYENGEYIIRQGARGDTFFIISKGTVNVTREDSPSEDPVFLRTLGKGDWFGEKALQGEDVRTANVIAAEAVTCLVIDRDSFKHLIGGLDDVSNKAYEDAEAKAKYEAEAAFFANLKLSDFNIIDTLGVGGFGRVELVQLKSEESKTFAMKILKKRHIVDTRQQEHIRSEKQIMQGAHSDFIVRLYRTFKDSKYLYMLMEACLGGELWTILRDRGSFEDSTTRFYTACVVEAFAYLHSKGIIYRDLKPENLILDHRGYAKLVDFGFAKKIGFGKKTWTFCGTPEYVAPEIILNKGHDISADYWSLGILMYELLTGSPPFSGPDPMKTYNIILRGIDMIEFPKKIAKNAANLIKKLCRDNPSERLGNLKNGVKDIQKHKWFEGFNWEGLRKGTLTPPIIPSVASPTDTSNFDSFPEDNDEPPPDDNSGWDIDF
PKCzeta, sequence (Q05513 whole entry): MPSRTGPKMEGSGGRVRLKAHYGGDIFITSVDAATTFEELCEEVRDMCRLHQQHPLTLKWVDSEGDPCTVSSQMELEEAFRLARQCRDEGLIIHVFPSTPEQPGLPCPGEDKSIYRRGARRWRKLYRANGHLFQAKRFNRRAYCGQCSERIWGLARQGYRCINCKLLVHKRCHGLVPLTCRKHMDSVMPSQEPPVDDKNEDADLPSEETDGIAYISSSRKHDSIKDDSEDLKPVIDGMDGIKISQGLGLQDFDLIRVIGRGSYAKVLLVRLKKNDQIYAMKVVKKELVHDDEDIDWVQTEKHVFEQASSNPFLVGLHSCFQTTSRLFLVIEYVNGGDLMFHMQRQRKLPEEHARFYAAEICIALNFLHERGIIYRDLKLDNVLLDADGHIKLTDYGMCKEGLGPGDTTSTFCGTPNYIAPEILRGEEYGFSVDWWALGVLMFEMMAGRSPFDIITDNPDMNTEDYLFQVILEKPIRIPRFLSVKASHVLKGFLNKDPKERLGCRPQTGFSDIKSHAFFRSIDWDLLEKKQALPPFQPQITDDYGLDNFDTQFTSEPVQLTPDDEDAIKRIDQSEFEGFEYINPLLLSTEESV
T4 sequence (O15146 517-869 limits assumed): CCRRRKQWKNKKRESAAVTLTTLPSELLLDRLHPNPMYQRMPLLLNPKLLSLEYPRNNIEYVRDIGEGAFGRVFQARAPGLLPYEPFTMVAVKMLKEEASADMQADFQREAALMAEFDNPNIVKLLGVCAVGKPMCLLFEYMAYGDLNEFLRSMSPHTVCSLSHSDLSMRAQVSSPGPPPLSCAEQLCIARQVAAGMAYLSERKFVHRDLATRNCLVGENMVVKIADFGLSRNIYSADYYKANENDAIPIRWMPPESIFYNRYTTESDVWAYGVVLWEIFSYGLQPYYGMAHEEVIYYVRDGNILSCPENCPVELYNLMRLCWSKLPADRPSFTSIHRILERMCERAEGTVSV

The term IC50 denotes the point on the concentration scale where inhibition reaches its midpoint. Regarding `Nc1c(N2CCN(C3CCCCC3)CC2)cc(Nc2ccc(C(=O)O)cc2)c2c1C(=O)c1ccccc1C2=O` [Compound 12, 4-{[4-amino-3-(4-cyclohexylpiperazin-1-yl)-9,10-dioxo-9,10-dihydroanthracen-1-yl]amino}benzoic acid], the IC50 at FLT3 (CD) was > 10 µM; against PKCalpha, > 10 µM; at PKCeta, > 10 µM; at LYN, > 10 µM; against MLK1/MAP3K9, > 10 µM; in [1] it was ~5 µM. Moreover, the IC50 was > 10 µM on FMS; 2 to 5 µM in experiment [2]; > 10 µM against FGFR1; 2 to 5 µM in experiment [3]; 2 to 5 µM in experiment [4]; > 10 µM at PKCdelta. Moreover, the IC50 at PKG1b, at PKCtheta, on PKCbetaII, on AKT1, against TrkB and against MUSK was > 10 µM in each case. Further, the IC50 against PKCzeta was > 10 µM; in [5], 2 to 5 µM; in experiment [6], 2 to 5 µM; at PKCepsilon it was > 10 µM.
